The structures appear in SMILES notation. Bridge positions count the residues as written; N and C are the ends. Square brackets hold non-standard residues; d marks the D form. Peptide text beside a SMILES is read from it. I, II: the chains in the order shown. * marks the point of attachment. Palmitoyl = CCCCCCCCCCCCCCCC(=O)*; PEG3 = NCCOCCOCCOCCC(=O)O; Dap = NC[C@H](N)C(=O)O

The test deals with T1, human MuSK (Homo sapiens, UniProt O15146).
T1 construct: fused downstream of the extracellular portion (amino acids 1-493) of human MuSK cDNA clone; made in house; host or cells: Expi293 cells; unpurified culture supernatant used
T1 sequence (O15146 24-493) 1: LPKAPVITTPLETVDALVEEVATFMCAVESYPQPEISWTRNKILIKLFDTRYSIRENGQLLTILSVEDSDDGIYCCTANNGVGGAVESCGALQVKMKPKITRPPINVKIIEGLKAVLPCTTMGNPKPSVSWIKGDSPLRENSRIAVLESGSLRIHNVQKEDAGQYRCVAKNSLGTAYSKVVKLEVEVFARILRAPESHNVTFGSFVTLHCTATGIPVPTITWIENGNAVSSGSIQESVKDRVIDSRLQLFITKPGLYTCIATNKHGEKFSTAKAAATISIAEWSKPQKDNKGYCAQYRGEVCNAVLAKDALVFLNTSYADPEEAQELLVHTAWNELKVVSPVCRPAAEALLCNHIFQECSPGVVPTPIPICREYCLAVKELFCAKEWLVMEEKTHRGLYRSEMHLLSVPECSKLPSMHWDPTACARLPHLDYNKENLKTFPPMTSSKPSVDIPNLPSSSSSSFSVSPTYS
T1 sequence (O15146 24-493) 2: T1 sequence (O15146 24-493) 1
Nature of the test: MuSK dimerization activity (NanoBiT assay). It counts as biochemical. The protocol: Expi293 cells were purchased from Thermo Fisher Scientific Inc. and used. For subculture, DMEM (high glucose, GlutaMAX supplement, pyruvate; GIBCO) supplemented with 10% fetal bovine serum (FBS; GIBCO) was used. For passage, after the culture medium was removed by suction, adherent cells were washed with phosphate buffered saline (PBS(-)), and HBSS (GIBCO) containing no Mg^2+ and Ca^2+ and containing 0.25% trypsin and 1 mM ethylenediaminetetraacetic acid was added, and the mixture was reacted in a CO2 incubator (37°C, 5% CO2) for 5 minutes. The detached cells were collected and then centrifuged at 1000 rpm at 4°C for 5 minutes (Sorvall X4R Pro, Thermo Fisher Scientific Inc.). After the supernatant was removed by suction, the cells were suspended in fresh culture medium and expanded in a new culture vessel.
In the steady state, their affinity is estimated to be about 190 µM, and the amount of luminescence is very small even in the presence of substrate. […] A technique for evaluating interactions between two arbitrary proteins by utilizing this property is the NanoBiT assay. […]
The effect of the U-bodies and their complexes on clustering of acetylcholine receptors was evaluated. […]

As to `CCCCCCCCCCCCCCCC(=O)NCCCC[C@H](NC(=O)[C@H](CNC(=O)CCOCCOCCOCCNC(=O)CNC(=O)[C@@H]1CSCC(=O)N[C@H](Cc2ccc(O)cc2)C(=O)N2CCC[C@H]2C(=O)N[C@@H](CO)C(=O)N[C@@H](Cc2ccc(O)cc2)C(=O)N[C@@H](Cc2c[nH]cn2)C(=O)N[C@@H]([C@@H](C)O)C(=O)N[C@@H](CC(N)=O)C(=O)N[C@@H](C(C)C)C(=O)N[C@@H](C(C)C)C(=O)N[C@@H](C)C(=O)N[C@@H](CO)C(=O)N[C@@H](CC(C)C)C(=O)N[C@@H](CCCCN)C(=O)N[C@@H](CCCNC(=N)N)C(=O)N1)NC(=O)CCOCCOCCOCCNC(=O)CNC(=O)[C@@H]1CSCC(=O)N[C@H](Cc2ccc(O)cc2)C(=O)N2CCC[C@H]2C(=O)N[C@@H](CO)C(=O)N[C@@H](Cc2ccc(O)cc2)C(=O)N[C@@H](Cc2c[nH]cn2)C(=O)N[C@@H]([C@@H](C)O)C(=O)N[C@@H](CC(N)=O)C(=O)N[C@@H](C(C)C)C(=O)N[C@@H](C(C)C)C(=O)N[C@@H](C)C(=O)N[C@@H](CO)C(=O)N[C@@H](CC(C)C)C(=O)N[C@@H](CCCCN)C(=O)N[C@@H](CCCNC(=N)N)C(=O)N1)C(N)=O` [MuSK7-pal] (I: {CH2CO}-[dY]PSYHTNVVASLKRCG[PEG3][Dap]K(Palmitoyl)-NH2 / II: {CH2CO}-[dY]PSYHTNVVASLKRCG[PEG3]; amide I:18-II:C; thioether I:N-I:15, II:N-II:15), for the setting “compound concentration exceeded 40 nM”, the MuSK dimerization result is reported as “conversely tended to decrease”. The “luminescence (MuSK dimerization)” value (concentration range from the pM order to 40 nM) is listed as “increased in a dose-dependent manner”.
